Measured values as given in publication PMC3820767, “Turning Defense into Offense: Defensin Mimetics as Novel Antibiotics Targeting Lipid II” (PLoS Pathogens, 2013).
pIC50: −log10 of the molar value. Like-named read-outs stand apart in the source and are kept apart here.

How the values were obtained:
[1] = Surface Plasmon Resonance binding to immobilized 3-Lipid II; settings: Table S3; SPR, initial determination at 10 µM
Protocol: Surface Plasmon Resonance binding experiments were carried out on a BIAcore T100 system (BIAcore Inc., Piscataway, NY) at 25°C. The assay buffer was 10 mM HEPES, 150 mM NaCl, 0.05% surfactant P20, pH 7.4 (±3 mM EDTA) supplemented with 10% DMSO. […] For initial determination of binding, defensin mimetics were introduced into the flow-cells (30 µl/min) in the running buffer at 10 µM. Resonance signals were corrected for nonspecific binding by subtracting the background of the control flow-cell. After each analysis, the sensor chip surfaces were regenerated with 50 mM NaOH for 30 s at a flow rate 100 µl/min, and equilibrated with the buffer prior to next injection. For binding kinetics studies, binding isotherms were analyzed with manufacturer-supplied software for BIAcore T100.

[2] = tested on: Escherichia coli ATCC 25922; test: Antibacterial killing, 96-well turbidimetric (modified vCC) assay; assay type: cell-based; settings: Table S3; concentration at which 100% killing occurred, no bacterial regrowth; No = not active
Protocol: (§1) The antibacterial activity of defensin mimetics against Staphylococcus aureus ATCC 29213 and Escherichia coli 25922 was carried out in a 96-well turbidimetric assay essentially as described previously with the following modifications: bacteria were exposed for 30 min to compounds in 10 mM phosphate buffer containing 5% DMSO prior to addition of 2× Muller-Hinton medium. Bacterial growth was monitored for 12 hours and data were analyzed as described. Determination of MICs was performed by Micromyx, LLC (Kalamazoo, Michigan) according to CLSI standards.

[3] = tested on: Staphylococcus aureus ATCC 29213; test: as above; assay type: cell-based; settings: Table S3; concentration at which 100% killing occurred, no bacterial regrowth; No = not active
Protocol: as §1

Caco-2 = test: Cytotoxicity by MTT assay; assay type: cell-based, human

SMILES | Binding on Lipid II? [1] | active against E.coli (IC100%) [2] | active against S.aureus (IC100%) [3] | cytotoxic for Caco II (C50% survival) (Caco-2) | pIC50 (Caco-2) | cytotoxic for Caco II (C50% survival) (Caco-2; Table S3, No = not cytotoxic) | pIC50 (Caco-2; Table S3, No = not cytotoxic, read-out: cytotoxic for Caco II (C50% survival))
C(#Cc1ccccc1)CN(CC#Cc1ccccc1)CCCCCCN(CC#Cc1ccccc1)CC#Cc1ccccc1.Cl.Cl [Compound 5230300, N,N,N',N'-tetrakis(3-phenyl-2-propyn-1-yl)-1,6-hexanediamine dihydrochloride] | No | No | No | No | – | – | –
CCCCN(CC#Cc1ccc(C#CCN(CCCC)CCCC)cc1)CCCC.Cl.Cl [Compound 5230313, 3,3'-(1,4-phenylene)bis(N,N-dibutyl-2-propyn-1-amine) dihydrochloride] | Yes | No | No | – | 3.44 | – | –
Fc1ccc(N2CCN(Cc3ccc(-c4ccccc4)cc3)CC2)cc1 [Compound 5267798, 1-(4-biphenylylmethyl)-4-(4-fluorophenyl)piperazine] | No | No | No | No | – | – | –
Clc1ccc(N2CCN(Cc3ccc(-c4ccccc4)cc3)CC2)cc1 [Compound 5270046, 1-(4-biphenylylmethyl)-4-(4-chlorophenyl)piperazine] | No | No | No | No | – | – | –
FC(F)(F)c1cccc(N2CCN(Cc3ccc4c(c3)Cc3ccccc3-4)CC2)c1 [Compound 5418391, 1-(9H-fluoren-2-ylmethyl)-4-[3-(trifluoromethyl)phenyl]piperazine] | No | No | No | – | 3.80 | – | –
FC(F)(F)c1cccc(N2CCN(CCc3ccccc3)CC2)c1 [Compound 5422765, 1-(2-phenylethyl)-4-[3-(trifluoromethyl)phenyl]piperazine] | Yes | No | No | – | 3.89 | – | –
CCN(CC)c1ccc(CN2CCN(c3cccc(C(F)(F)F)c3)CC2)cc1 [Compound 5427129, N,N-diethyl-4-({4-[3-(trifluoromethyl)phenyl]-1-piperazinyl}methyl)aniline] | Yes | No | (No) | – | 3.72 | – | –
CN(C)c1ccc(C=CCN2CCN(Cc3ccccc3)CC2)cc1 [Compound 5429346, 4-[3-(4-benzyl-1-piperazinyl)-1-propen-1-yl]-N,N-dimethylaniline] | Yes | No | 500 µM | – | 3.88 | – | –
CCCN1CCC(NCc2cccc(C(F)(F)F)c2)CC1 [Compound 5452876, 1-propyl-N-[3-(trifluoromethyl)benzyl]-4-piperidinamine] | No | No | No | No | – | – | –
Fc1ccc(N2CCN(C3CCN(Cc4ccccc4)CC3)CC2)cc1 [Compound 5457685, 1-(1-benzyl-4-piperidinyl)-4-(4-fluorophenyl)piperazine] | No | No | No | No | – | – | –
CC(CCc1ccc(O)cc1)NCCc1ccccc1 (stereo not drawn) [Compound 5460400, 4-{3-[(2-phenylethyl)amino]butyl}phenol] | No | No | No | – | – | No | –
CC[n+]1c(/C=C/C=C2\N(C)c3ccccc3C2(C)C)sc2ccccc21.[O-][Cl+3]([O-])([O-])[O-] [Compound 5660386, 3-ethyl-2-[(1E)-3-[(2Z)-1,3,3-trimethyl-2,3-dihydro-1H-indol-2-ylidene]prop-1-en-1-yl]-1,3-benzothiazol-3-ium perchlorate] | No | 125 µM | 7,8 µM | – | – | – | 5.25
Cc1ccc(CN2CCC(N3CCN(c4ccccc4F)CC3)CC2)cc1 [Compound 6711103, 1-(2-fluorophenyl)-4-[1-(4-methylbenzyl)-4-piperidinyl]piperazine] | No | No | No | No | – | – | –
O=C(O)C(=O)O.c1ccc(CCCN2CCC(N3CCN(c4ccccc4)CC3)CC2)cc1 [Compound 6785396, 1-phenyl-4-[1-(3-phenylpropyl)-4-piperidinyl]piperazine oxalate] | No | No | No | – | 3.77 | – | –
CC(C)(O)C#Cc1ccc(C#Cc2ccc(C#CC(C)(C)O)cc2)cc1 [Compound 7191067, 4,4'-(1,2-ethynediyldi-4,1-phenylene)bis(2-methyl-3-butyn-2-ol)] | No | No | No | No | – | – | –
Cc1ccc(CN2C(=O)c3ccccc3C2(O)Cc2ccccc2)cc1 (stereo not drawn) [Compound 7832238, 3-benzyl-3-hydroxy-2-[(4-methylphenyl)methyl]-2,3-dihydro-1H-isoindol-1-one] | No | No | No | No | – | – | –
CC(C)CCCC(C)C1CCC2C3CC=C4CC(O)CCC4(C)C3CCC12C (stereo not drawn) [Compound N050-0022, 2,15-dimethyl-14-(6-methylheptan-2-yl)tetracyclo[8.7.0.0^{2,7}.0^{11,15}]heptadec-7-en-5-ol] | No | No | No | – | 3.91 | – | –
O=C(CSc1nc(-c2ccccc2)c(-c2ccccc2)n1-c1ccccc1)N1CCCc2ccccc21 [ST4098270, 1-(1,2,3,4-tetrahydroquinolin-1-yl)-2-[(1,4,5-triphenyl-1H-imidazol-2-yl)sulfanyl]ethan-1-one] | No | No | No | No | – | – | –
CCN1/C(=C\C=C\c2sc3c4ccccc4[se]c3[n+]2CC)Sc2c1[se]c1ccccc21 [STK368153, 3-ethyl-2-[(1E,3E)-3-(3-ethyl[1]benzoselenopheno[2,3-d][1,3]thiazol-2(3H)-ylidene)prop-1-en-1-yl][1]benzoselenopheno[2,3-d][1,3]thiazol-3-ium] | Yes | 7,8 µM | 7,8 µM | – | 5.02 | – | –
CCn1c2ccccc2c2cc(N/C=C(\C#N)c3nc(-c4ccc(C)cc4C)cs3)ccc21 [STK537076, (2E)-2-[4-(2,4-dimethylphenyl)-1,3-thiazol-2-yl]-3-[(9-ethyl-9H-carbazol-3-yl)amino]prop-2-enenitrile] | No | No | No | – | 3.62 | – | –
CCN1/C(=C/C=C/C=C/C2=CC(=C/c3sc4ccccc4[n+]3CC)/CC(C)(C)C2)Sc2ccccc21 [STK792971, 3-ethyl-2-[(E)-{3-[(1E,3E,5Z)-5-(3-ethyl-1,3-benzothiazol-2(3H)-ylidene)penta-1,3-dien-1-yl]-5,5-dimethylcyclohex-2-en-1-ylidene}methyl]-1,3-benzothiazol-3-ium] | No | No | 62,5 µM | No | – | – | –
CC[n+]1c(/C=C/C=C/N(C(C)=O)c2ccccc2)sc2cc(OC)ccc21 [STK874226, 2-{(1E,3E)-4-[acetyl(phenyl)amino]buta-1,3-dien-1-yl}-3-ethyl-6-methoxy-1,3-benzothiazol-3-ium] | No | 250 µM | 125 µM | No | – | – | –
COc1ccc(-c2cn(CC(=O)N(c3ccccc3)C(C)C)c3[n+]2CCC3)cc1 [STL050072, 3-(4-methoxyphenyl)-1-{2-oxo-2-[phenyl(propan-2-yl)amino]ethyl}-1,5,6,7-tetrahydropyrrolo[1,2-a]imidazol-4-ium] | No | No | No | – | 3.47 | – | –
CN1CCC(N(Cc2ccccc2)C(=O)CCc2ccc3c(c2)n(C)c(=O)n3C)CC1 [SYN22879441, N-Benzyl-3-(1,3-dimethyl-2-oxo-2,3-dihydro-1H-benzoimidazol-5-yl)-N-(1-methyl-piperidin-4-yl)-propionamide] | No | No | No | No | – | – | –
